Reference: ChEMBL document CHEMBL3885861, “Open TG-GATES”

Species on record: Rattus norvegicus
Test: Open TG-GATES - Regimen: Daily Repeat
Format: toxicity, organism-based, Sprague-Dawley
Parameters: regimen Daily Repeat, gender Male, age 6 weeks
Conditions: in vivo, po, route gavage; for KIDNEY_L / KIDNEY_R / KIDNEY_TOTAL: tissue Kidney; for ALP / ALT / AST / BUN / CRE / Ca / Cl / DBIL / GLC / IP / K / PL / RALB / TBIL / TC / TG / TP / gamma-GTP: tissue Plasma
[1] = 60 mg/kg, 72 h, tissue Blood, dose level Middle, time 3 day
[2] = 60 mg/kg, 72 h, dose level Middle, time 3 day
[3] = 60 mg/kg, […], dose level Middle, time 7 day
[4] = 60 mg/kg, […], dose level Middle, time 14 day
[5] = 60 mg/kg, […], dose level Middle, time 28 day
[6] = 60 mg/kg, […], tissue Blood, dose level Middle, time 7 day
[7] = 60 mg/kg, […], tissue Blood, dose level Middle, time 14 day
[8] = 60 mg/kg, […], tissue Blood, dose level Middle, time 28 day

CCCCC1C(=O)N(c2ccccc2)N(c2ccccc2)C1=O [PHENYLBUTAZONE]
Eos [1]: 1.2% | Fbg [1]: 234.2 mg/dL | Ht [1]: 42.3% | Lym [1]: 76.2% | MCHC [1]: 33.5% | MCV [1]: 63.4 fL | Mono [1]: 6.4% | Neu [1]: 16.4% | RBC [1]: 667.4 x10_4/ul | Ret [1]: 6.7% | WBC [1]: 119.1 x10_2/uL | KIDNEY_L [2]: 1 g | KIDNEY_R [2]: 1 g | KIDNEY_TOTAL [2]: 2 g | ALP [2]: 957.4 IU/L | ALT [2]: 35.6 IU/L | AST [2]: 57.6 IU/L | BUN [2]: 18.4 mg/dL | CRE [2]: 0.6 mg/dL | Ca [2]: 10.5 mg/dL | Cl [2]: 105.6 meq/L | DBIL [2]: 0.006 mg/dL | GLC [2]: 199.4 mg/dL | IP [2]: 7.9 mg/dL | K [2]: 4.7 meq/L | PL [2]: 167.6 mg/dL | RALB [2]: 4 g/dL | TBIL [2]: 0.3 mg/dL | TC [2]: 92 mg/dL | TG [2]: 136.8 mg/dL | TP [2]: 6.1 g/dL | gamma-GTP [2]: 1 IU/L | TERMINAL_BW [3]: 272.5 g | TERMINAL_BW [4]: 313.9 g | TERMINAL_BW [5]: 407.1 g | APTT [6]: 16.2 s | Bas [6]: 0% | Eos [6]: 0.4% | Fbg [6]: 231 mg/dL | Ht [6]: 42.2% | Lym [6]: 86.2% | MCHC [6]: 33.6% | MCV [6]: 64.2 fL | Mono [6]: 4.2% | Neu [6]: 9% | PT [6]: 11.7 s | RBC [6]: 657.4 x10_4/ul | Ret [6]: 5.4% | WBC [6]: 186.6 x10_2/uL | APTT [7]: 16.5 s | Bas [7]: 0% | Eos [7]: 0.6% | Fbg [7]: 227.6 mg/dL | Hb [7]: 14.9 g/dL | Ht [7]: 44.5% | Lym [7]: 86% | MCHC [7]: 33.5% | MCV [7]: 60.4 fL | Mono [7]: 4% | Neu [7]: 9.4% | RBC [7]: 736.4 x10_4/ul | Ret [7]: 4.4% | WBC [7]: 167.1 x10_2/uL | APTT [8]: 15.9 s | Bas [8]: 0% | Eos [8]: 0.6% | Fbg [8]: 246.5 mg/dL | Hb [8]: 15.3 g/dL | Ht [8]: 45.9% | Lym [8]: 86% | MCHC [8]: 33.4% | MCV [8]: 58.4 fL | Mono [8]: 3% | RBC [8]: 786.6 x10_4/ul | Ret [8]: 2.6% | WBC [8]: 129.4 x10_2/uL | KIDNEY_L [3]: 1.1 g | KIDNEY_R [3]: 1.1 g | KIDNEY_TOTAL [3]: 2.2 g | KIDNEY_L [4]: 1.3 g | KIDNEY_R [4]: 1.3 g | KIDNEY_TOTAL [4]: 2.6 g | KIDNEY_L [5]: 1.4 g | KIDNEY_R [5]: 1.4 g | KIDNEY_TOTAL [5]: 2.9 g | ALP [3]: 845.8 IU/L | ALT [3]: 37.4 IU/L | AST [3]: 65 IU/L | BUN [3]: 20.8 mg/dL | CRE [3]: 0.5 mg/dL | Ca [3]: 10.7 mg/dL | Cl [3]: 106.6 meq/L | DBIL [3]: 0 mg/dL | GLC [3]: 195.8 mg/dL | IP [3]: 8.5 mg/dL | K [3]: 5 meq/L | PL [3]: 161 mg/dL | RALB [3]: 4 g/dL | TBIL [3]: 0.3 mg/dL | TC [3]: 79 mg/dL | TG [3]: 166.8 mg/dL | TP [3]: 6.7 g/dL | gamma-GTP [3]: 1.4 IU/L | ALP [4]: 877.8 IU/L | ALT [4]: 36.4 IU/L | AST [4]: 65 IU/L | BUN [4]: 20.8 mg/dL | CRE [4]: 0.6 mg/dL | Ca [4]: 10.6 mg/dL | Cl [4]: 107 meq/L | DBIL [4]: 0.002 mg/dL | GLC [4]: 189.4 mg/dL | IP [4]: 8.3 mg/dL | K [4]: 4.5 meq/L | RALB [4]: 4 g/dL | TBIL [4]: 0.3 mg/dL | TC [4]: 64 mg/dL | TG [4]: 138 mg/dL | TP [4]: 6.3 g/dL | gamma-GTP [4]: 1.8 IU/L | ALP [5]: 605.8 IU/L | ALT [5]: 44.2 IU/L | AST [5]: 70.8 IU/L | BUN [5]: 22.2 mg/dL | CRE [5]: 0.6 mg/dL | Ca [5]: 10.7 mg/dL | Cl [5]: 105.2 meq/L | DBIL [5]: 0.006 mg/dL | GLC [5]: 189.8 mg/dL | IP [5]: 7.7 mg/dL | K [5]: 4.6 meq/L | PL [5]: 161.8 mg/dL | RALB [5]: 4.3 g/dL | TBIL [5]: 0.4 mg/dL | TC [5]: 76.4 mg/dL | TG [5]: 280.8 mg/dL | TP [5]: 6.8 g/dL | gamma-GTP [5]: 1.2 IU/L | TERMINAL_BW (200 mg/kg, 72 h, dose level High, time 3 day): 224.8 g | APTT (200 mg/kg, 72 h, tissue Blood, dose level High, time 3 day): 17.7 s
